For test [1], the system named is collagen I. The test is described as follows: TGF-β-induced collagen I production, Western blot. The format is cell-based, human. The conditions noted are these: WI-38 lung fibroblasts; 1 μM pretreatment; TGF-β 10 ng/mL 24 h. As to the method:
(§1) Western blot analysis was performed. First, WI-38 lung fibroblasts were incubated with different concentrations of MPT0E028 (0.01, 0.03, 0.1, 0.3, or 1 μM) (FIG. 10A) or MPT0G009 (0.01, 0.03, 0.1, 0.3, or 1 μM) (FIG. 10B) for 30 min before and during incubation for 2 h with TGF-β (10 ng/mL). WI-38 lung fibroblasts were incubated with 1 μM MPT0E028 and MPT0G009 for 30 min and following another incubation for 2 h with 1 U/ml thrombin (FIG. 10C) and 10 nM ET-1 (FIG. 10D). The collagen I production from WI-38 lung fibroblasts stimulated by 10 ng/mL TGF-β for 24 h was inhibited with 1 μM MPT0E028 and MPT0G009 pretreatment (FIG. 10E).
WI-38 cells, a normal human embryonic lung fibroblast cell line, were obtained from American Type Culture Collection (Manassas, Va.). […]
Western blot analyses were performed as described previously (Chen B C, Chang Y S, Kang J C, Hsu M J, Sheu J R, Chen T L, et al. Peptidoglycan induces nuclear factor-kappaB activation and cyclooxygenase-2 expression via Ras, Raf-1, and ERK in RAW 264.7 macrophages. J Biol Chem 2004; 279:20889-97). […] The immunoreactivity was detected using enhanced chemiluminescence (ECL) following the manufacturer's instructions. Quantitative data were obtained using a computing densitometer with scientific imaging systems (Kodak, Rochester, N.Y.). […]
(In western blotting, separated proteins are transferred to a membrane and probed.)

The subject of test [2] is CTGF. Description: pro-fibrogenic mediator-induced CTGF production, Western blot. In kind it is cell-based, human. The following applies: WI-38 lung fibroblasts. As to the method:
as §1
WI-38 cells, a normal human embryonic lung fibroblast cell line, were obtained from American Type Culture Collection (Manassas, Va.). Cells were grown in MEM nutrient mixture, containing 10% FCS, 2 mM L-glutamine, 0.1 mM NEAA, 1 mM sodium pyruvate, 50 U/ml penicillin G, and 100 μg/ml streptomycin, in a humidified 37° C. incubator with 5% CO2 Cells were used between passages 18 and 30 for all experiments. After reaching confluence, cells were seeded onto 6-cm dishes for immunoblotting.
Western blot analyses were performed as described previously (Chen B C, Chang Y S, Kang J C, Hsu M J, Sheu J R, Chen T L, et al. Peptidoglycan induces nuclear factor-kappaB activation and cyclooxygenase-2 expression via Ras, Raf-1, and ERK in RAW 264.7 macrophages. J Biol Chem 2004; 279:20889-97). Briefly, WI-38 lung fibroblasts were cultured in 6-cm dishes. After reaching confluence, cells were pretreated with specific inhibitors (E028 and G009) as indicated for 30 min, and then treated with the vehicle (H2O) or 10 ng/ml TGF-β for 2 h (CTGF assay) or 24 h (collagen I assay). Whole-cell lysates ([…]) were subjected to 12% (CTGF) or 8% (collagen I) SDS-PAGE, and transferred onto a polyvinylidene difluoride membrane which was then incubated in TBST buffer (150 mM NaCl, 20 mM Tris-HCl, and 0.02% Tween 20; pH 7.4) containing 5% BSA. Proteins were visualized by specific primary antibodies and then incubated with HRP-conjugated secondary antibodies. The immunoreactivity was detected using enhanced chemiluminescence (ECL) following the manufacturer's instructions. Quantitative data were obtained using a computing densitometer with scientific imaging systems (Kodak, Rochester, N.Y.).
To determine whether the inhibitory effects of MPT0E028 and MPT0G009 on pro-fibrogenic mediators (TGF-β, thrombin, and ET-1) were related to the modulation of CTGF and Collagen I production, Western blot analysis was performed. First, WI-38 lung fibroblasts were incubated with different concentrations of MPT0E028 (0.01, 0.03, 0.1, 0.3, or 1 μM) (FIG. 10A) or MPT0G009 (0.01, 0.03, 0.1, 0.3, or 1 μM) (FIG. 10B) for 30 min before and during incubation for 2 h with TGF-β (10 ng/mL). […] Furthermore, we examined the effects of MPT0E028 and MPT0G009 on other pro-fibrogenic mediators. As shown in FIGS. 10C and 10D, WI-38 lung fibroblasts were incubated with 1 μM MPT0E028 and MPT0G009 for 30 min and following another incubation for 2 h with 1 U/ml thrombin (FIG. 10C) and 10 nM ET-1 (FIG. 10D).

With `O=C(/C=C/c1ccc2c(c1)CCN2S(=O)(=O)c1ccccc1)NO` [MPT0E028], the “collagen I production” value in test [1] is “inhibited”. The “ET-1-induced CTGF expression” value in test [2] (1 μM, 10 nM ET-1 2 h) was “inhibited”. Also, in test [2] (1 μM, 1 U/ml thrombin 2 h), the “thrombin-induced CTGF expression” value is given as “inhibited”. The “TGF-β-induced CTGF production” value in test [2] (0.01-1 μM, TGF-β 10 ng/mL 2 h) is “significantly inhibited”.

(Values after patent US20150368195A1, “INDOLINE COMPOUNDS FOR TREATMENT AND/OR PREVENTION OF INFLAMMATION DISEASES” (Taipei Medical University, priority 2014, published 2015).)
